Measured values published in patent publication US20240239775A1, “FXR REGULATOR, PREPARATION METHOD THEREFOR, PHARMACEUTICAL COMPOSITION THEREOF AND USE THEREOF” (QINGDAO RUIJI MEDICAL TECHNOLOGY CO., LTD., priority 2021, published 2024).
pIC50: −log10 of the molar value.

Target: T1, FXR (Homo sapiens, UniProt Q96RI1)
T1 construct: 5 μL of 20 nM FXR-LBD Complete Coregulator buffer G; purchased ThermoFisher PV4833
T1 sequence (Q96RI1 262-486 limits assumed): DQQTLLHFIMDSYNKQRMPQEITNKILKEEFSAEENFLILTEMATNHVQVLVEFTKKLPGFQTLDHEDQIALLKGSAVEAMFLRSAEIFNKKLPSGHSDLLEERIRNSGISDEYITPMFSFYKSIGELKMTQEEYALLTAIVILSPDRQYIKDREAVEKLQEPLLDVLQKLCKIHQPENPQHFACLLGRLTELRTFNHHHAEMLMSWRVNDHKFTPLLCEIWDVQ
Experiment: FXR antagonist screening by TR-FRET (LanthaScreen TR-FRET FXR co-activation assay kit)
Type: biochemical
Settings: TR-FRET with CDCA, geometric means of at least two independent runs
Description: FXR activity was evaluated by time-resolved fluorescence resonance energy transfer (TR-FRET) assay, using LanthaScreen™ TR-FRET FXR co-activation assay kit (ThermoFisher, Cat. PV4833). For agonist screening, 10 μL of Complete Coregulator buffer G containing the corresponding concentration of the compound to be tested, 5 μL of 20 nM FXR-LBD Complete Coregulator buffer G, and 5 μL of 2.0 μM Fluorescein-SRC2-2/20 nM Tb-anti-GST antibody Complete Coregulator buffer G were added to each well of a 384-well black plate (Coring) in sequence. […] Three duplicate wells were set up for each compound, with CDCA as the positive compound and DMSO as the solvent control. For antagonist screening, 5 μL of Complete Coregulator buffer G containing the corresponding concentration of the compound to be tested, 5 μL of 20 nM FXR-LBD Complete Coregulator buffer G, 5 μL of 200 μM CDCA FXR-LBD Complete Coregulator buffer G, and 5 μL of 2.0 μM Fluorescein-SRC2-2/20 nM Tb-anti-GST antibody Complete Coregulator buffer G were added to each well of a 384-well black plate (Coring) in sequence and incubated at room temperature for 10 h. Following operations were the same as those for agonist screening

[1] = Table 1.1, FXR antagonistic activity
[2] = Table 1.2, FXR antagonistic activity

Compound	pIC50 [1]	pIC50 [2]
CCOC(=O)c1oc2ccc(S(=O)(=O)N(CCc3ccccc3)Cc3ccccc3)cc2c1C [Example F27-S8, ethyl 5-(N-benzyl-N-phenethylsulfamoyl)-3-methylbenzofuran-2-carboxylate]	4.00 to 4.30	
Cc1c(C(=O)O)oc2ccc(S(=O)(=O)N(CCc3ccccc3)c3ccccc3)cc12 [Example F27-S10, 3-methyl-5-(N-phenethyl-N-phenylsulfamoyl)benzofuran-2-carboxylic acid]	4.00 to 4.30	
Cc1c(C(=O)O)oc2ccc(S(=O)(=O)N(CCc3ccccc3)CCc3ccccc3)cc12 [Example F27-S13, 3-methyl-5-(N,N-diphenylethylsulfamoyl)benzofuran-2-carboxylic acid]	4.30 to 5.00	
Cc1c(C(=O)O)oc2ccc(S(=O)(=O)N(CCc3ccccc3)Cc3ccc(Br)cc3)cc12 [Example F27-S30, 3-methyl-5-(N-(4-bromobenzyl)-N-phenethylsulfamoyl)benzofuran-2-carboxylic acid]	4.30 to 5.00	
Cc1c(C(=O)O)oc2ccc(S(=O)(=O)N(CCc3ccccc3)Cc3ccc(C(=O)OC(C)(C)C)cc3)cc12 [Example F27-S40, 3-methyl-5-(N-(4-(tert-butoxycarbonyl)benzyl)-N-phenethylsulfamoyl)benzofuran-2-carboxylic acid]	4.30 to 5.00	
Cc1c(C(=O)O)oc2ccc(S(=O)(=O)N(CCc3ccccc3)Cc3cccc4cccnc34)cc12 [Example F27-S44, 3-methyl-5-(N-(quinolin-8-ylmethyl)-N-phenethylsulfamoyl)benzofuran-2-carboxylic acid]	4.30 to 5.00	
Cc1c(C(=O)O)oc2ccc(S(=O)(=O)N(CCc3ccccc3)c3ccc(N4CCN(S(C)(=O)=O)CC4)cc3)cc12 [Example F27-S72, 3-methyl-5-(N-(4-(4-(methylsulfonyl)piperazin-1-yl)phenyl)-N-phenethylsulfamoyl)benzofuran-2-carboxylic acid]	4.00 to 4.30	
Cc1c(C(=O)O)oc2ccc(S(=O)(=O)N(CCc3ccccc3)Cc3ccc(N4CCN(C)CC4)cc3)cc12 [Example F27-S80, 3-methyl-5-(N-(4-(4-methylpiperazin-1-yl)benzyl)-N-phenethylsulfamoyl)benzofuran-2-carboxylic acid]	4.00 to 4.30	
Cc1c(C(=O)O)oc2ccc(S(=O)(=O)N(CCc3ccccc3)Cc3ccc(N4CCN(C(=O)OC(C)(C)C)CC4)cc3)cc12 [Example F27-S81, 3-methyl-5-(N-(4-(4-(tert-butoxycarbonyl)piperazin-1-yl)benzyl)-N-phenethylsulfamoyl)benzofuran-2-carboxylic acid]	4.30 to 5.00	
Cc1c(C(=O)O)oc2ccc(S(=O)(=O)N(CCc3ccccc3)Cc3ccc(Oc4ccccc4)cc3)cc12 [Example F27-S86]	4.30 to 5.00	
Cc1c(C(=O)O)oc2ccc(S(=O)(=O)N(CCc3ccccc3)Cc3ccccc3N3CCN(C(=O)OC(C)(C)C)CC3)cc12 [Example F27-S87, 3-methyl-5-(N-(2-(4-(tert-butoxycarbonyl)piperazin-1-yl)benzyl)-N-phenethylsulfamoyl)benzofuran-2-carboxylic acid]	5.00 to 7.00	
Cc1ccc(C(=O)N2CCN(c3ccccc3N(CCc3ccccc3)S(=O)(=O)c3ccc4oc(C(=O)O)c(C)c4c3)CC2)cc1 [Example F27-S106, 3-methyl-5-(N-(2-(4-(4-methylbenzoyl)piperazin-1-yl)phenyl)-N-phenethylsulfamoyl)benzofuran-2-carboxylic acid]		5.00 to 7.00
Cc1ccccc1C(=O)N1CCN(c2ccccc2N(CCc2ccccc2)S(=O)(=O)c2ccc3oc(C(=O)O)c(C)c3c2)CC1 [Example F27-S107, 3-methyl-5-(N-(2-(4-(2-methylbenzoyl)piperazin-1-yl)phenyl)-N-phenethylsulfamoyl)benzofuran-2-carboxylic acid]		5.00 to 7.00
Cc1cccc(C(=O)N2CCN(c3ccccc3N(CCc3ccccc3)S(=O)(=O)c3ccc4oc(C(=O)O)c(C)c4c3)CC2)c1 [Example F27-S108, 3-methyl-5-(N-(2-(4-(3-methylbenzoyl)piperazin-1-yl)phenyl)-N-phenethylsulfamoyl)benzofuran-2-carboxylic acid]		5.00 to 7.00
CC(=O)Nc1ccc(C(=O)N2CCN(c3ccccc3N(CCc3ccccc3)S(=O)(=O)c3ccc4oc(C(=O)O)c(C)c4c3)CC2)cc1 [Example F27-S109, 5-(N-(2-(4-(4-acetamidobenzoyl)piperazin-1-yl)phenyl)-N-phenethylsulfamoyl)-3-methylbenzofuran-2-carboxylic acid]		5.00 to 7.00
Cc1c(C(=O)O)oc2ccc(S(=O)(=O)N(CCc3ccccc3)c3ccccc3N3CCN(C(=O)c4ccc(C(F)(F)F)cc4)CC3)cc12 [Example F27-S110, 3-methyl-5-(N-phenethyl-N-(2-(4-(4-(trifluoromethyl)benzoyl)piperazin-1-yl)phenyl)sulfamoyl)benzofuran-2-carboxylic acid]		5.00 to 7.00
Cc1c(C(=O)O)oc2ccc(S(=O)(=O)N(CCc3ccccc3)c3ccccc3N3CCN(C(=O)c4ccc(F)cc4)CC3)cc12 [Example F27-S112, 5-(N-(2-(4-(4-fluorobenzoyl)piperazin-1-yl)phenyl)-N-phenethylsulfamoyl)-3-methylbenzofuran-2-carboxylic acid]		5.00 to 7.00
Cc1c(C(=O)O)oc2ccc(S(=O)(=O)N(CCc3ccccc3)c3ccccc3N3CCN(C(=O)c4ccc(NC(=O)OC(C)(C)C)cc4)CC3)cc12 [Example F27-S113]		5.00 to 7.00
Cc1c(C(=O)O)oc2ccc(S(=O)(=O)N(CCc3ccccc3)c3ccccc3N3CCN(C(=O)c4ccc([N+](=O)[O-])cc4)CC3)cc12 [Example F27-S114, 3-methyl-5-(N-(2-(4-(4-nitrobenzoyl)piperazin-1-yl)phenyl)-N-phenethylsulfamoyl)benzofuran-2-carboxylic acid]		5.00 to 7.00
CC(=O)c1ccc(C(=O)N2CCN(c3ccccc3N(CCc3ccccc3)S(=O)(=O)c3ccc4oc(C(=O)O)c(C)c4c3)CC2)cc1 [Example F27-S115, 5-(N-(2-(4-(4-acetylbenzoyl)piperazin-1-yl)phenyl)-N-phenethylsulfamoyl)-3-methylbenzofuran-2-carboxylic acid]		5.00 to 7.00
Cc1c(C(=O)O)oc2ccc(S(=O)(=O)N(CCc3ccccc3)c3ccccc3N3CCN(C(=O)c4cccnc4)CC3)cc12 [Example F27-S116, 3-methyl-5-(N-(2-(4-nicotinoylpiperazin-1-yl)phenyl)-N-phenethylsulfamoyl)benzofuran-2-carboxylic acid]		5.00 to 7.00
Cc1c(C(=O)O)oc2ccc(S(=O)(=O)N(CCc3ccccc3)c3ccccc3N3CCN(C(=O)c4ccccn4)CC3)cc12 [Example F27-S117, 3-methyl-5-(N-phenethyl-N-(2-(4-pyridinecarbonylpiperazin-1-yl)phenyl)sulfamoyl)benzofuran-2-carboxylic acid]		5.00 to 7.00
Cc1c(C(=O)O)oc2ccc(S(=O)(=O)N(CCc3ccccc3)c3ccccc3N3CCN(C(=O)c4cccs4)CC3)cc12 [Example F27-S118, 3-methyl-5-(N-phenethyl-N-(2-(4-(thiophene-2-carbonyl)piperazin-1-yl)phenyl)sulfamoyl)benzofuran-2-carboxylic acid]		5.00 to 7.00
Cc1c(C(=O)O)oc2ccc(S(=O)(=O)N(CCc3ccccc3)c3ccccc3N3CCN(C(=O)c4ccsc4)CC3)cc12 [Example F27-S119, 3-methyl-5-(N-phenethyl-N-(2-(4-(thiophene-3-carbonyl)piperazin-1-yl)phenyl)sulfamoyl)benzofuran-2-carboxylic acid]		5.00 to 7.00
C/C=C/C(=O)N1CCN(c2ccccc2N(CCc2ccccc2)S(=O)(=O)c2ccc3oc(C(=O)O)c(C)c3c2)CC1 [Example F27-S120, (E)-5-(N-(2-(4-(but-2-enoyl)piperazin-1-yl)phenyl)-N-phenethylsulfamoyl)-3-methylbenzofuran-2-carboxylic acid]		5.00 to 7.00
Cc1c(C(=O)O)oc2ccc(S(=O)(=O)N(CCc3ccccc3)c3ccccc3N3CCN(C(=O)c4ccco4)CC3)cc12 [Example F27-S121, 5-(N-(2-(4-(furan-2-carbonyl)piperazin-1-yl)phenyl)-N-phenethylsulfamoyl)-3-methylbenzofuran-2-carboxylic acid]		5.00 to 7.00
Cc1c(C(=O)O)oc2ccc(S(=O)(=O)N(CCc3ccccc3)c3ccccc3N3CCN(C(=O)C4CCCC4)CC3)cc12 [Example F27-S122, 5-(N-(2-(4-(cyclopentanecarbonyl)piperazin-1-yl)phenyl)-N-phenethylsulfamoyl)-3-methylbenzofuran-2-carboxylic acid]		5.00 to 7.00
Cc1c(C(=O)O)oc2ccc(S(=O)(=O)N(CCc3ccccc3)c3ccccc3N3CCN(C(=O)c4ccc(Br)s4)CC3)cc12 [Example F27-S123, 5-(N-(2-(4-(5-bromothiophene-2-carbonyl)piperazin-1-yl)phenyl)-N-phenethylsulfamoyl)-3-methyl benzofuran-2-carboxylic acid]		5.00 to 7.00
